From ChEMBL document CHEMBL3745709, “Synthesis of novel ethyl 1-ethyl-6-fluoro-7-(fatty amido)-1,4-dihydro-4-oxoquinoline-3-carboxylate derivatives and their biological evaluation” (Bioorg Med Chem Lett, 2016)
Converted amounts (≈) assume the structure as drawn.

Legend:
Staphylococcus aureus [1] = experiment: Antibiofilm activity against Staphylococcus aureus MLS-16 MTCC 2940 after 24 hrs by crystal violet staining method; type: functional, organism-based; conditions: MLS-16 MTCC 2940, 24 h
[2] = Cytotoxicity against human DU145 cells assessed as reduction in cell viability by MTT assay; type: functional, cell-based; conditions: DU-145
Bacillus subtilis [3] = experiment: Antibiofilm activity against Bacillus subtilis MTCC 121 after 24 hrs by crystal violet staining method; type: functional, organism-based; conditions: MTCC 121, 24 h
Candida albicans [4] = experiment: Antifungal activity against Candida albicans MTCC 183 assessed as inhibition zone after 24 hrs at 30 degC by well diffusion method; type: functional; conditions: MTCC 183, 24 h
Escherichia coli [5] = experiment: Bactericidal activity against Escherichia coli MTCC 739 assessed as microbial killing after 24 hrs; type: functional; conditions: MTCC 739, 24 h
Micrococcus luteus = experiment: Antibacterial activity against Micrococcus luteus MTCC 2470 assessed as inhibition zone after 24 hrs at 30 degC by well diffusion method; type: functional; conditions: MTCC 2470, 24 h
Escherichia coli [6] = experiment: Antibiofilm activity against Escherichia coli MTCC 739 after 24 hrs by crystal violet staining method; type: functional, organism-based; conditions: MTCC 739, 24 h
Escherichia coli [7] = experiment: Antibacterial activity against Escherichia coli MTCC 739 assessed as inhibition zone after 24 hrs at 30 degC by well diffusion method; type: functional; conditions: MTCC 739, 24 h
[8] = Antioxidant activity assessed as DPPH free radical scavenging activity; type: physicochemical
Candida albicans [9] = experiment: Fungicidal activity against Candida albicans MTCC 4748 assessed as microbial killing after 24 hrs; type: functional; conditions: MTCC 4748, 24 h
Pseudomonas aeruginosa = experiment: Antibacterial activity against Pseudomonas aeruginosa MTCC 2453 assessed as inhibition zone after 24 hrs at 30 degC by well diffusion method; type: functional; conditions: MTCC 2453, 24 h
Staphylococcus aureus [10] = experiment: Antibacterial activity against Staphylococcus aureus MTCC 96 […] after 24 hrs at 30 degC by well diffusion method; type: functional; conditions: MTCC 96, 24 h
[11] = Cytotoxicity against human IMR90 cells assessed as reduction in cell viability by MTT assay; type: cell-based; conditions: IMR-90
Candida albicans [12] = experiment: Fungicidal activity against Candida albicans MTCC 3018 assessed as microbial killing after 24 hrs; type: functional; conditions: MTCC 3018, 24 h
Bacillus subtilis [13] = experiment: Bactericidal activity against Bacillus subtilis MTCC 121 assessed as microbial killing after 24 hrs; type: functional; conditions: MTCC 121, 24 h
Candida parapsilosis [14] = experiment: Fungicidal activity against Candida parapsilosis MTCC 1744 assessed as microbial killing after 24 hrs; type: functional; conditions: Lodderomyces parapsilosis, MTCC 1744, 24 h
Bacillus subtilis [15] = experiment: Antibacterial activity against Bacillus subtilis MTCC 121 assessed as inhibition zone after 24 hrs at 30 degC by well diffusion method; type: functional; conditions: MTCC 121, 24 h
Candida albicans [16] = experiment: Antifungal activity against Candida albicans MTCC 3018 assessed as inhibition zone after 24 hrs at 30 degC by well diffusion method; type: functional; conditions: MTCC 3018, 24 h
Candida albicans [17] = experiment: Fungicidal activity against Candida albicans MTCC 7315 assessed as microbial killing after 24 hrs; type: functional; conditions: MTCC 7315, 24 h
Staphylococcus aureus [18] = experiment: Antibacterial activity against Staphylococcus aureus MLS-16 MTCC 2940 assessed as inhibition zone after 24 hrs at 30 degC by well diffusion method; type: functional; conditions: MLS-16 MTCC 2940, 24 h
[19] = Cytotoxicity against human SKOV3 cells assessed as reduction in cell viability by MTT assay; type: functional, cell-based; conditions: SK-OV-3
Candida albicans [20] = experiment: Antifungal activity against Candida albicans MTCC 3017 […] after 24 hrs at 30 degC by well diffusion method; type: functional; conditions: MTCC 3017, 24 h
Pichia kudriavzevii [21] = experiment: Antifungal activity against Candida krusei MTCC 3020 assessed as inhibition zone after 24 hrs at 30 degC by well diffusion method; type: functional; conditions: MTCC 3020, 24 h
Raoultella planticola = experiment: Antibacterial activity against Klebsiella planticola MTCC 530 assessed as inhibition zone after 24 hrs at 30 degC by well diffusion method; type: functional; conditions: MTCC 530, 24 h
[Candida] aaseri [22] = Antifungal activity against Candida aaseri MTCC 1962 assessed as inhibition zone after 24 hrs at 30 degC by well diffusion method; type: functional; conditions: Yamadazyma aaseri, MTCC 1962, 24 h
IMR-90 [23] = experiment: Selectivity index, ratio of IC50 for human IMR90 cells to IC50 for human DU145 cells; type: functional
[Candida] aaseri [24] = Fungicidal activity against Candida aaseri MTCC 1962 assessed as microbial killing after 24 hrs; type: functional; conditions: Yamadazyma aaseri, MTCC 1962, 24 h
Nakaseomyces glabratus [25] = experiment: Fungicidal activity against Candida glabrata MTCC 3019 assessed as microbial killing after 24 hrs; type: functional; conditions: MTCC 3019, 24 h
Candida albicans [26] = experiment: Fungicidal activity against Candida albicans MTCC 227 assessed as microbial killing after 24 hrs; type: functional; conditions: MTCC 227, 24 h
Candida albicans [27] = experiment: Fungicidal activity against Candida albicans MTCC 1637 assessed as microbial killing after 24 hrs; type: functional; conditions: MTCC 1637, 24 h
Candida albicans [28] = experiment: Antifungal activity against Candida albicans MTCC 854 assessed as inhibition zone after 24 hrs at 30 degC by well diffusion method; type: functional; conditions: MTCC 854, 24 h
Staphylococcus aureus [29] = experiment: Antibiofilm activity against Staphylococcus aureus MTCC 96 after 24 hrs by crystal violet staining method; type: functional, organism-based; conditions: MTCC 96, 24 h
A549 [30] = experiment: Cytotoxicity against human A549 cells assessed as reduction in cell viability by MTT assay; type: functional, cell-based
Candida albicans [31] = experiment: Antifungal activity against Candida albicans MTCC 7315 assessed as inhibition zone after 24 hrs at 30 degC by well diffusion method; type: functional; conditions: MTCC 7315, 24 h
SK-OV-3 = experiment: Selectivity index, ratio of IC50 for human IMR90 cells to IC50 for human SKOV3 cells; type: functional
IMR-90 [32] = experiment: Selectivity index, ratio of IC50 for human IMR90 cells to IC50 for human MCF7 cells; type: functional
Candida albicans [33] = experiment: Fungicidal activity against Candida albicans MTCC 3958 assessed as microbial killing after 24 hrs; type: functional; conditions: MTCC 3958, 24 h
Candida albicans [34] = experiment: Fungicidal activity against Candida albicans MTCC 854 assessed as microbial killing after 24 hrs; type: functional; conditions: MTCC 854, 24 h
A549 [35] = experiment: Selectivity index, ratio of IC50 for human IMR90 cells to IC50 for human A549 cells; type: functional
Candida parapsilosis [36] = experiment: Antifungal activity against Candida parapsilosis MTCC 1744 assessed as inhibition zone after 24 hrs at 30 degC by well diffusion method; type: functional; conditions: Lodderomyces parapsilosis, MTCC 1744, 24 h
Candida albicans [37] = experiment: Fungicidal activity against Candida albicans MTCC 3017 assessed as microbial killing after 24 hrs; type: functional; conditions: MTCC 3017, 24 h
Pichia kudriavzevii [38] = experiment: Fungicidal activity against Candida krusei MTCC 3020 assessed as microbial killing after 24 hrs; type: functional; conditions: MTCC 3020, 24 h
Pichia sporocuriosa [39] = experiment: Antifungal activity against Issatchenkia hanoiensis MTCC 4755 assessed as inhibition zone after 24 hrs at 30 degC by well diffusion method; type: functional; conditions: MTCC 4755, 24 h
Pichia sporocuriosa [40] = experiment: Fungicidal activity against Issatchenkia hanoiensis MTCC 4755 assessed as microbial killing after 24 hrs; type: functional; conditions: MTCC 4755, 24 h
Nakaseomyces glabratus [41] = experiment: Antifungal activity against Candida glabrata MTCC 3019 assessed as inhibition zone after 24 hrs at 30 degC by well diffusion method; type: functional; conditions: MTCC 3019, 24 h
Candida albicans [42] = experiment: Antifungal activity against Candida albicans MTCC 3958 assessed as inhibition zone after 24 hrs at 30 degC by well diffusion method; type: functional; conditions: MTCC 3958, 24 h
Candida albicans [43] = experiment: Antifungal activity against Candida albicans MTCC 227 assessed as inhibition zone after 24 hrs at 30 degC by well diffusion method; type: functional; conditions: MTCC 227, 24 h
Staphylococcus aureus [44] = experiment: Bactericidal activity against Staphylococcus aureus MTCC 96 assessed as microbial killing after 24 hrs; type: functional; conditions: MTCC 96, 24 h
Candida albicans [45] = experiment: Fungicidal activity against Candida albicans MTCC 183 assessed as microbial killing after 24 hrs; type: functional; conditions: MTCC 183, 24 h
MCF7 = experiment: Cytotoxicity against human MCF7 cells assessed as reduction in cell viability by MTT assay; type: functional, cell-based
Candida albicans [46] = experiment: Antifungal activity against Candida albicans MTCC 1637 assessed as inhibition zone after 24 hrs at 30 degC by well diffusion method; type: functional; conditions: MTCC 1637, 24 h
Staphylococcus aureus [47] = experiment: Bactericidal activity against Staphylococcus aureus MLS-16 MTCC 2940 assessed as microbial killing after 24 hrs; type: functional; conditions: MLS-16 MTCC 2940, 24 h
Candida albicans [48] = experiment: Antifungal activity against Candida albicans MTCC 4748 assessed as inhibition zone after 24 hrs at 30 degC by well diffusion method; type: functional; conditions: MTCC 4748, 24 h

Compound `CCCCCC(=O)Nc1cc2c(cc1F)c(=O)c(C(=O)OCC)cn2CC` has an IC50 (Staphylococcus aureus [1]) of 9.8 µg/mL (≈ 26 µM), an IC50 [2] of 9.8 µM and an IC50 (Bacillus subtilis [3]) of 4.6 µg/mL (≈ 12.2 µM). The MIC (Candida albicans [4]) was 15.6 µg/mL (≈ 41.4 µM), the MBC (Escherichia coli [5]) was 31.2 µg/mL (≈ 82.9 µM) and the MIC (Micrococcus luteus) was greater than 125 µg/mL. For the same compound, the IC50 (Escherichia coli [6]) was 8.7 µg/mL (≈ 23.1 µM), the MIC (Escherichia coli [7]) was 15.6 µg/mL (≈ 41.4 µM) and the EC50 [8] was 33.8 µg/mL (≈ 89.8 µM). The MFC (Candida albicans [9]) was 62.6 µg/mL (≈ 166 µM), the MIC (Pseudomonas aeruginosa) was greater than 125 µg/mL and the MIC (Staphylococcus aureus [10]) was 3.9 µg/mL (≈ 10.4 µM). It also gave an IC50 [11] of 88.2 µM, an MFC (Candida albicans [12]) of 62.5 µg/mL (≈ 166 µM) and an MBC (Bacillus subtilis [13]) of 7.8 µg/mL (≈ 20.7 µM). The MFC (Candida parapsilosis [14]) was 62.5 µg/mL (≈ 166 µM), the MIC (Bacillus subtilis [15]) was 7.8 µg/mL (≈ 20.7 µM) and the MIC (Candida albicans [16]) was 62.5 µg/mL (≈ 166 µM). For the same compound, the MFC (Candida albicans [17]) was 31.2 µg/mL (≈ 82.9 µM), the MIC (Staphylococcus aureus [18]) was 15.6 µg/mL (≈ 41.4 µM) and the IC50 [19] was 8.6 µM. For the same compound, the MIC (Candida albicans [20]) was 31.2 µg/mL (≈ 82.9 µM), the MIC (Pichia kudriavzevii [21]) was 62.5 µg/mL (≈ 166 µM) and the MIC (Raoultella planticola) was greater than 125 µg/mL. The MIC ([Candida] aaseri [22]) was 31.2 µg/mL (≈ 82.9 µM), the “Ratio IC50” value (IMR-90 [23]) was 9 and the MFC ([Candida] aaseri [24]) was 62.5 µg/mL (≈ 166 µM). For the same compound, the MFC (Nakaseomyces glabratus [25]) was 31.2 µg/mL (≈ 82.9 µM), the MFC (Candida albicans [26]) was 125 µg/mL (≈ 332 µM) and the MFC (Candida albicans [27]) was 62.5 µg/mL (≈ 166 µM). It also gave an MIC (Candida albicans [28]) of 31.2 µg/mL (≈ 82.9 µM), an IC50 (Staphylococcus aureus [29]) of 2.1 µg/mL (≈ 5.58 µM) and an IC50 (A549 [30]) of 8.9 µM. The MIC (Candida albicans [31]) was 31.2 µg/mL (≈ 82.9 µM), the “Ratio IC50” value (SK-OV-3) was 10.2 and the “Ratio IC50” value (IMR-90 [32]) was 9. For the same compound, the MFC (Candida albicans [33]) was 62.5 µg/mL (≈ 166 µM), the MFC (Candida albicans [34]) was 62.5 µg/mL (≈ 166 µM) and the “Ratio IC50” value (A549 [35]) was 9.9. The MIC (Candida parapsilosis [36]) was 31.2 µg/mL (≈ 82.9 µM), the MFC (Candida albicans [37]) was 62.5 µg/mL (≈ 166 µM) and the MFC (Pichia kudriavzevii [38]) was 62.5 µg/mL (≈ 166 µM). The MIC (Pichia sporocuriosa [39]) was 31.2 µg/mL (≈ 82.9 µM), the MFC (Pichia sporocuriosa [40]) was 62.5 µg/mL (≈ 166 µM) and the MIC (Nakaseomyces glabratus [41]) was 31.2 µg/mL (≈ 82.9 µM). The MIC (Candida albicans [42]) was 31.2 µg/mL (≈ 82.9 µM), the MIC (Candida albicans [43]) was 62.5 µg/mL (≈ 166 µM) and the MBC (Staphylococcus aureus [44]) was 7.8 µg/mL (≈ 20.7 µM). For the same compound, the MFC (Candida albicans [45]) was 31.2 µg/mL (≈ 82.9 µM), the IC50 (MCF7) was 9.8 µM and the MIC (Candida albicans [46]) was 31.2 µg/mL (≈ 82.9 µM). The MBC (Staphylococcus aureus [47]) was 31.2 µg/mL (≈ 82.9 µM) and the MIC (Candida albicans [48]) was 31.2 µg/mL (≈ 82.9 µM).
